{"source": "patent US10047067B2", "about": "“Composition for treating kidney disease comprising pyrazole derivative” (Ewha University-Industry Collaboration Foundation, priority 2012, dated 2018)", "test_system": "collagen Iα1 expression in proximal tubular cells (mProx24)", "experiment": "Inhibitory effect on collagen Iα1 expression in proximal tubular cells (hTGF-β1 stimulated, real-time PCR)", "assay_type": "cell-based", "details": "for mrna remaining at 0.01 µM / mrna remaining at 0.1 µM / mrna remaining at 1 µM / mrna remaining at 10 µM / inhibition at 0.01 µM / inhibition at 0.1 µM / inhibition at 1 µM / inhibition at 10 µM / IC50: Mus musculus; for mrna remaining at 0.01 µM / mrna remaining at 0.1 µM / mrna remaining at 1 µM / mrna remaining at 10 µM: Col1, mProx24, 5 ng/ml hTGF-β1 6 hrs, relative to hTGF-β1 alone = 1, read-out: Mean expression level ratio of collagen Iα1 (Col1α) to 18S rRNA; for mrna remaining at 0.01 µM / inhibition at 0.01 µM: 0.01 μM compound; for mrna remaining at 0.1 µM / inhibition at 0.1 µM: 0.1 μM compound; for mrna remaining at 1 µM / inhibition at 1 µM: 1 μM compound; for mrna remaining at 10 µM / inhibition at 10 µM: 10 μM compound; for inhibition at 0.01 µM / inhibition at 0.1 µM / inhibition at 1 µM / inhibition at 10 µM: mProx24, 100% = control without hTGF-β1, 0% = hTGF-β1 alone, read-out: expression inhibition rate (collagen Iα1); for IC50: mProx24, hTGF-β1 stimulated, read-out: IC50 (inhibition of collagen Iα1 expression)", "experimental": "mProx24, which is a name of the proximal tubular cells derived from proximal tubule segments obtained by finely sectioning the kidney of adult C57BL6/J mice, was granted from Professor Sugaya, St. Marianna University School of Medicine, Kanagawa, Japan. mProx24 was cultured in DMEM (Dulbecco's modified Eagle's medium) supplemented with 10% fetal calf serum (FCS, Gibco), 100 U/ml penicillin, 100 μg/ml streptomycin, and 44 mM NaHCO3 at 37° C. in a 5% CO2 atmosphere. For quantitation of RNA expression, the cells were cultured in 6-well plates. When the cells grew 90% confluent, the medium was changed with a fresh 0.15% FCS (Gibco)-supplemented DMEM. Incubation in this medium for 24 hrs halted the cell growth to synchronize the growth cycle in the cells. Compounds of Examples 1 to 9 and Comparative Example were respectively dissolved in DMSO (dimethylsulfoxide) to form a concentration of 50 mM, and subjected to serial dilution to 10 mM, 1 mM, 0.1 mM, and 0.01 mM. 10 mM, 1 mM, 0.1 mM, and 0.01 mM solutions of each of the compounds of Examples 1 to 9 and Comparative Example were 1,000-fold diluted in 0.15% FCS (Gibco)-supplemented DMEM to form final concentrations of 10 μM, 1 μM, 0.1 μM, and 0.01 μM, respectively. In addition, 0 μM (DMSO 1 μL) was used. The cells were incubated for 1 hr in the dilutions and then for 6 hrs in the presence of 5 ng/ml recombinant human transforming growth factor-β1 (hTGF-β1, R&D Systems). For the control, hTGF-β1 was not used. Total RNA was extracted from mProx24 using Trizol (Invitrogen). For quantitation of mRNA expression, a reaction volume of 20 μL including cDNA transcripts, primer pairs, and SYBR Green PCR Master Mix (Applied Biosystems) was subjected to real-time PCR with the aid of StepOnePlus (Applied Biosystems) (real-time PCR condition: 95° C., 10 min→40 thermal cycles of denaturation at 95° C. for 15 sec and primer annealing at 60° C. for 1 min→95° C. for 15 sec, 60° C. for 1 min, and 95° C. for 15 sec to measure a melting curve). Quantitation was normalized to 18S rRNA expression level. A pair of primers for mouse collagen Iα1 were 5′-[…]-3′(SEQ ID NO: 13) and 5′-[…]-3′ (SEQ ID NO: 14). Forward and reverse primers for mouse r18S rRNA were 5′-CGAAAGCATTTGCCAAGAAT-3′ (SEQ ID NO: 11) and 5′-AGTCGGCATCGTTTATGGTC-3′ (SEQ ID NO: 12), respectively.\nExperiment results are given in Tables 3 to 12 and FIGS. 4 to 13. Tables 3 to 12 and FIGS. 4 to 13 show inhibitory effects of the compounds of Examples 1 to 9 and Comparative Example 1 on collagen Iα1 expression in proximal tubular cells.\nData of Tables 3 to 12 and FIGS. 4 to 13 are measurements of experiments repeated three to five times for each concentration, and are expressed as mean±standard error (SE). Statistic comparison among the groups was analyzed by ANOVA and Fisher's least significant difference test, with significance at p<0.05. *P<0.05 vs. WT, †P<0.05 vs. DM.\nIn Tables 3 to 12, mean values of expression level ratios of collagen Iα1 (Col1α) to 18S rRNA (18S), and % inhibition against collagen Iα1 expression for each group are shown, together with IC50 value (μM). In this regard, % inhibition means relative inhibition to 100% for the control and 0% for the group that was treated with hTGF-β1 but not with any of the compounds of Examples or Comparative Example."}
{"molecule": "COc1cccc(-c2cc(O)n(-c3ccccn3)n2)c1", "note": "[Compound 18-001, 3-(3-Methoxyphenyl)-1-(Pyridin-2-yl)-1H-Pyrazol-5-ol]", "values": [{"measurement": "mrna remaining at 0.01 µM", "result": 74.8, "unit": "%"}, {"measurement": "mrna remaining at 0.1 µM", "result": 69.8, "unit": "%"}, {"measurement": "mrna remaining at 1 µM", "result": 64.2, "unit": "%"}, {"measurement": "mrna remaining at 10 µM", "result": 34.5, "unit": "%"}, {"measurement": "inhibition at 0.01 µM", "result": 31, "unit": "%"}, {"measurement": "inhibition at 0.1 µM", "result": 37.1, "unit": "%"}, {"measurement": "inhibition at 1 µM", "result": 44, "unit": "%"}, {"measurement": "inhibition at 10 µM", "result": 80.5, "unit": "%"}, {"measurement": "IC50", "result": 3190, "unit": "nM"}]}
{"molecule": "Oc1cc(-c2ccc(Br)cc2)nn1-c1ccccn1", "note": "[Compound 18-066, 3-(4-bromophenyl)-1-(pyridin-2-yl)-1H-pyrazol-5-ol]", "values": [{"measurement": "mrna remaining at 0.01 µM", "result": 78.5, "unit": "%"}, {"measurement": "mrna remaining at 0.1 µM", "result": 71.7, "unit": "%"}, {"measurement": "mrna remaining at 1 µM", "result": 72.6, "unit": "%"}, {"measurement": "mrna remaining at 10 µM", "result": 58.3, "unit": "%"}, {"measurement": "inhibition at 0.01 µM", "result": 30.2, "unit": "%"}, {"measurement": "inhibition at 0.1 µM", "result": 39.8, "unit": "%"}, {"measurement": "inhibition at 1 µM", "result": 38.5, "unit": "%"}, {"measurement": "inhibition at 10 µM", "result": 58.6, "unit": "%"}, {"measurement": "IC50", "result": 2140, "unit": "nM"}]}
{"molecule": "CC(=O)Oc1cc(-c2ccc(Br)cc2)nn1-c1ccccn1", "note": "[Compound 18-067, 3-(4-bromophenyl)-1-(pyridin-2-yl)-1H-pyrazol-5-yl acetate]", "values": [{"measurement": "mrna remaining at 0.01 µM", "result": 70, "unit": "%"}, {"measurement": "mrna remaining at 0.1 µM", "result": 60.7, "unit": "%"}, {"measurement": "mrna remaining at 1 µM", "result": 56.2, "unit": "%"}, {"measurement": "mrna remaining at 10 µM", "result": 32.5, "unit": "%"}, {"measurement": "inhibition at 0.01 µM", "result": 35.6, "unit": "%"}, {"measurement": "inhibition at 0.1 µM", "result": 46.6, "unit": "%"}, {"measurement": "inhibition at 1 µM", "result": 52, "unit": "%"}, {"measurement": "inhibition at 10 µM", "result": 80.1, "unit": "%"}, {"measurement": "IC50", "result": 299, "unit": "nM"}]}
{"molecule": "Oc1cc(-c2cccc(I)c2)nn1-c1ccccn1", "note": "[Compound 18-082, 3-(3-iodophenyl)-1-(pyridin-2-yl)-1H-pyrazol-5-ol]", "values": [{"measurement": "mrna remaining at 0.01 µM", "result": 71, "unit": "%"}, {"measurement": "mrna remaining at 0.1 µM", "result": 60.5, "unit": "%"}, {"measurement": "mrna remaining at 1 µM", "result": 39.1, "unit": "%"}, {"measurement": "mrna remaining at 10 µM", "result": 31.2, "unit": "%"}, {"measurement": "inhibition at 0.01 µM", "result": 39.5, "unit": "%"}, {"measurement": "inhibition at 0.1 µM", "result": 53.8, "unit": "%"}, {"measurement": "inhibition at 1 µM", "result": 83, "unit": "%"}, {"measurement": "inhibition at 10 µM", "result": 93.7, "unit": "%"}, {"measurement": "IC50", "result": 105, "unit": "nM"}]}
{"molecule": "Oc1cc(COc2ccc3ccccc3c2)nn1-c1ccccn1", "note": "[Compound 18-095, 3-((naphthalen-3-yloxy)methyl)-1-(pyridin-2-yl)-1H-pyrazol-5-ol]", "values": [{"measurement": "mrna remaining at 0.01 µM", "result": 69.9, "unit": "%"}, {"measurement": "mrna remaining at 0.1 µM", "result": 66.3, "unit": "%"}, {"measurement": "mrna remaining at 1 µM", "result": 50.4, "unit": "%"}, {"measurement": "mrna remaining at 10 µM", "result": 26.8, "unit": "%"}, {"measurement": "inhibition at 0.01 µM", "result": 37.2, "unit": "%"}, {"measurement": "inhibition at 0.1 µM", "result": 41.7, "unit": "%"}, {"measurement": "inhibition at 1 µM", "result": 61.4, "unit": "%"}, {"measurement": "inhibition at 10 µM", "result": 90.6, "unit": "%"}, {"measurement": "IC50", "result": 227, "unit": "nM"}]}
{"molecule": "Oc1cc(-c2ccccc2-c2ccc3c(c2)OCO3)nn1-c1ccccn1", "note": "[Compound 18-177, 3-(2-(benzo[d][1,3]dioxol-5-yl)phenyl)-1-(pyridin-2-yl)-1H-pyrazol-5-ol]", "values": [{"measurement": "mrna remaining at 0.01 µM", "result": 96, "unit": "%"}, {"measurement": "mrna remaining at 0.1 µM", "result": 83.9, "unit": "%"}, {"measurement": "mrna remaining at 1 µM", "result": 74.2, "unit": "%"}, {"measurement": "mrna remaining at 10 µM", "result": 43.8, "unit": "%"}, {"measurement": "inhibition at 0.01 µM", "result": 5.46, "unit": "%"}, {"measurement": "inhibition at 0.1 µM", "result": 22, "unit": "%"}, {"measurement": "inhibition at 1 µM", "result": 35.2, "unit": "%"}, {"measurement": "inhibition at 10 µM", "result": 76.7, "unit": "%"}, {"measurement": "IC50", "result": 1310, "unit": "nM"}]}
{"molecule": "Oc1cc(-c2ccc(-c3ccccc3)cc2)nn1-c1ncccn1", "note": "[Compound 18-186, 3-(biphenyl-4-yl)-1-(pyrimidin-2-yl)-1H-pyrazol-5-ol]", "values": [{"measurement": "mrna remaining at 0.01 µM", "result": 82.5, "unit": "%"}, {"measurement": "mrna remaining at 0.1 µM", "result": 56.9, "unit": "%"}, {"measurement": "mrna remaining at 1 µM", "result": 58.6, "unit": "%"}, {"measurement": "mrna remaining at 10 µM", "result": 58.3, "unit": "%"}, {"measurement": "inhibition at 0.01 µM", "result": 22.5, "unit": "%"}, {"measurement": "inhibition at 0.1 µM", "result": 55.4, "unit": "%"}, {"measurement": "inhibition at 1 µM", "result": 53.2, "unit": "%"}, {"measurement": "inhibition at 10 µM", "result": 53.6, "unit": "%"}, {"measurement": "IC50", "result": 78, "unit": "nM"}]}
{"molecule": "c1ccc(COc2c(Cc3ccccc3)c(-c3ccccc3)nn2-c2ccccn2)cc1", "note": "[Compound 18-233, 3-Phenyl-4-Benzyl-5-Benzyloxy-1-(2-Pyridinyl)Pyrazole, reference compound]", "values": [{"measurement": "mrna remaining at 0.01 µM", "result": 93.3, "unit": "%"}, {"measurement": "mrna remaining at 0.1 µM", "result": 75.7, "unit": "%"}, {"measurement": "mrna remaining at 1 µM", "result": 71.2, "unit": "%"}, {"measurement": "mrna remaining at 10 µM", "result": 65.6, "unit": "%"}, {"measurement": "inhibition at 0.01 µM", "result": 8.23, "unit": "%"}, {"measurement": "inhibition at 0.1 µM", "result": 29.9, "unit": "%"}, {"measurement": "inhibition at 1 µM", "result": 35.4, "unit": "%"}, {"measurement": "inhibition at 10 µM", "result": 42.3, "unit": "%"}, {"measurement": "IC50", "result": 10200, "unit": "nM"}, {"measurement": "expression of the extracellular matrix, collagen Iα1 (Col1α), in proximal tubular cells", "setting": "result in words", "result": "decreased the expression level"}]}
{"molecule": "CCCc1c(/C=C/c2ccc(O)c(OC)c2)nn(-c2ccccn2)c1O", "note": "[Compound 18-273, 3-{2-(4-hydroxy-3-methoxyphenyl)vinyl}-4-propyl-1-(2-pyridinyl)pyrazol-5-ol]", "values": [{"measurement": "mrna remaining at 0.01 µM", "result": 40.8, "unit": "%"}, {"measurement": "mrna remaining at 0.1 µM", "result": 83.5, "unit": "%"}, {"measurement": "mrna remaining at 1 µM", "result": 83.2, "unit": "%"}, {"measurement": "mrna remaining at 10 µM", "result": 46, "unit": "%"}, {"measurement": "inhibition at 0.01 µM", "result": 82.6, "unit": "%"}, {"measurement": "inhibition at 0.1 µM", "result": 23, "unit": "%"}, {"measurement": "inhibition at 1 µM", "result": 23.4, "unit": "%"}, {"measurement": "inhibition at 10 µM", "result": 75.3, "unit": "%"}, {"measurement": "IC50", "result": 1780, "unit": "nM"}]}
